According to patent US11826326B2, “Benzoic acid or a salt and derivative thereof for use in preventing or treating depression” (EXCELSIOR PHARMATECH LABS, priority 2017, dated 2023):

Experiments:
[1] = tested on: D-amino acid oxidase (DAAO); settings: cited from earlier work
patients with dementia = settings: depression in patients with dementia; cited from earlier work
patients with MDD [2] = assay: Perceived stress scale (PSS) in randomized, double-blind, placebo-controlled trial; type: in vivo, human; settings: for PSS Difference, Mean ± SD: baseline to week 8, 250-1500 mg/day, n = 20, p=0.022 vs placebo
Experimental: (§1) It was conducted a randomized, double-blind, placebo-controlled trial in Taiwan. […] At the baseline and at the end of week 2, 4, 6 and 8, the assessments of 17-Item Hamilton rating scale for depression (HAMD-17) (Hamilton 1960), perceived stress scale (PSS), and global assessment of function (GAF) were arranged.
(§2) This study was a pilot eight weeks trial with the aim of examining sodium benzoate for the treatment of MDD. Patients were evaluated by research psychiatrists after a thorough medical and neurological workup. The structured clinical interview for DSM-IV (SCID) (American Psychiatric Association 1994) was conducted for diagnosis, and eligible patients diagnosed with MDD by DSM-IV (American Psychiatric Association 1994b) were recruited. […] The dosage of study drugs was adjusted according to clinical evaluation.
(§3) The data analyses were based on the intent-to-treat principle. The last observation carried forward was used to analyze all available data from the entire sample (i.e., cases with complete and incomplete data). A level of 0.05 (two-sided value) for type I errors was adopted for all analyses for statistical significance. Demographic characteristics, baseline and endpoint symptomatology were compared between two groups by t test (or Mann-Whitney U test) for continuous variables and chi-square test (or Fisher's exact test) for categorical variables.

patients with MDD [3] = assay: Safety assessment: UKU side-effects rating scale, routine laboratory tests, EKG, dropout; type: in vivo, human
Experimental: In addition, the assessments of systemic side effects were examined biweekly by routine physical and neurological examinations and the Udvalg for Kliniske Undersogelser (UKU) side-effects rating scale (Lingjaerde, Ahlfors et al. 1987). The routine laboratory tests, including complete blood count (CBC), biochemistry, urine analysis and electrocardiogram (EKG), were checked at the baseline and at the end of week 8.
Further, clinical assessment of safety was performed every week during the study period by face-to-face or telephone interview. Drop out was determined by research psychiatrists or patients if continuation of the study was regarded obviously more risky than beneficial.

patients with MDD [4] = assay: 17-Item Hamilton rating scale for depression (HAMD-17) in randomized, double-blind, placebo-controlled trial; type: in vivo, human; settings: for HAMD-17 Difference, Mean ± SD: baseline to week 8, 250-1500 mg/day, n = 20, p=0.011 vs placebo; for HAMD-17 score before treatment: baseline
Experimental: as §1, §2, §3

patients with MDD [5] = assay: Global assessment of function (GAF) in randomized, double-blind, placebo-controlled trial; type: in vivo, human; settings: for GAF Difference, Mean ± SD: baseline to week 8, 250-1500 mg/day, n = 20, table p 0.103 vs placebo
Experimental: as §1
Patients were evaluated by research psychiatrists after a thorough medical and neurological workup. The structured clinical interview for DSM-IV (SCID) (American Psychiatric Association 1994) was conducted for diagnosis, and eligible patients diagnosed with MDD by DSM-IV (American Psychiatric Association 1994b) were recruited. […] The dosage of study drugs was adjusted according to clinical evaluation.
as §3

patients with MDD [6] = assay: Mini-mental state examination (MMSE) score of single subjects of the treatment group; type: in vivo, human; settings: for MMSE score before treatment: baseline
Source text: At the same time, the mini-mental state examination (MMSE) score, which is used to evaluate cognitive impairment, has improved from 26 to 30. […] Furthermore, person two has a decrease of HAMD-17 score from 26 to 12, and improved cognitive function as shown by an increased MMSE score from 23 to 26.

[7] = week 0, n = 20, before treatment
[8] = single subject one, after 8 weeks
[9] = single subject three, after treatment
[10] = single subject two, after treatment

For `O=C(O)c1ccccc1` [Benzoic acid], the “inhibition of DAAO activity” value [1] is listed as “can inhibit DAAO activity”.
For `CN1CCN2c3ncccc3Cc3ccccc3C2C1` (stereo not drawn) [mirtazapine], the “reduction of depression scores compared with placebo” value (patients with dementia) is listed as “did not differ from the placebo group”.
In the case of `CN[C@H]1CC[C@@H](c2ccc(Cl)c(Cl)c2)c2ccccc21` [sertraline], the “reduction of depression scores compared with placebo” value (patients with dementia) is listed as “did not differ from the placebo group”.
For `O=C([O-])c1ccccc1.[Na+]` [sodium benzoate], the “improvement in PSS scores compared with placebo therapy” value (patients with MDD [2]; 8 weeks) was “greater improvement”, the “PSS Endpoint, Mean ± SD” value (patients with MDD [2]; after 8 weeks, 250-1500 mg/day, n = 20, LOCF, p 0.019 vs placebo) was 28.9 ± 10.8 and the “PSS Difference, Mean ± SD” value (patients with MDD [2]) was 6.4±9.9. For the same compound, the “PSS Difference, Mean ± SD” value (patients with MDD [2]; listed as Benzoate) was −6.4 ± 9.9, the “PSS Baseline, Mean ± SD” value (patients with MDD [2]; [7]) was 35.2 ± 5.8 and the “Treatment-emergent adverse events by UKU side-effects rating scale” value (patients with MDD [3]; 8-week treatment) was “mild and not warranting medical treatment”. For the same compound, the “dropout due to side effects” value (patients with MDD [3]; 8-week treatment) was “No dropout was due to side effects”, the “values of routine CBC, biochemistry and EKG tests after treatment” value (patients with MDD [3]; baseline and end of week 8) was “all within the normal ranges without a significant change” and the “commonly seen side effects of anti-depression medication (nausea, nervousness, restlessness, irregular heart rate, sweating, constipation)” value (patients with MDD [3]; subjects from the treatment group) was “not observed”. For the same compound, the “improvement in HAMD-17 scores compared with placebo therapy” value (patients with MDD [4]; 8 weeks) was “greater improvement”, the “HAMD-17 Endpoint, Mean ± SD” value (patients with MDD [4]; after 8 weeks, 250-1500 mg/day, n = 20, LOCF) was 19.3 ± 6.4 and the “HAMD-17 Difference, Mean ± SD” value (patients with MDD [4]) was 7.5±4.9. For the same compound, the “HAMD-17 Difference, Mean ± SD” value (patients with MDD [4]; listed as Benzoate) was −7.5 ± 4.9, the HAMD-17 score decrease (patients with MDD [4]; single subject one, 8 weeks) was 20 and the “HAMD-17 score after treatment” value (patients with MDD [4]; [8]) was 4. The “HAMD-17 score before treatment” value (patients with MDD [4]; single subject one) was 24, the HAMD-17 score decrease (patients with MDD [4]; single subject three) was 16 and the “HAMD-17 score after treatment” value (patients with MDD [4]; [9]) was 15. The “HAMD-17 score before treatment” value (patients with MDD [4]; single subject three) was 31, the “HAMD-17 score after treatment” value (patients with MDD [4]; [10]) was 12 and the “HAMD-17 score before treatment” value (patients with MDD [4]; single subject two) was 26. For the same compound, the “HAMD-17 Baseline, Mean ± SD” value (patients with MDD [4]; [7]) was 26.7 ± 5.2, the “improvement in GAF scores compared with placebo therapy” value (patients with MDD [5]; 8 weeks) was “slightly greater improvement” and the “GAF Difference, Mean ± SD” value (patients with MDD [5]) was 5.5±6.0. For the same compound, the “GAF Difference, Mean ± SD” value (patients with MDD [5]; listed as Benzoate) was 5.5 ± 6.0, the “GAF Baseline, Mean ± SD” value (patients with MDD [5]; [7]) was 57.4 ± 8.4 and the “MMSE score after treatment” value (patients with MDD [6]; [8]) was 30. The “MMSE score before treatment” value (patients with MDD [6]; single subject one) was 26, the “MMSE score after treatment” value (patients with MDD [6]; [9]) was 25 and the “MMSE score before treatment” value (patients with MDD [6]; single subject three) was 23. The “MMSE score after treatment” value (patients with MDD [6]; [10]) was 26, the “MMSE score before treatment” value (patients with MDD [6]; single subject two) was 23 and the “inhibition of DAAO activity” value [1] was “can inhibit DAAO activity”.
